These are literature values, as cited in patent US20250073197A1, “THE ANTI-INFLAMMATORY ROLE OF CANNABIDIOL, RETINYL PALMITATE, BETA-CARYOPHYLLENE AND TRIBUTYRIN WHEN ADMINISTERED IN CONJUNCTION” (FLG Sciences, LLC, priority 2023, published 2025).

For series [1] the following is noted: use in the disease named in Table 1 (Diabetes or Dyslipidemia).

For the compound `Cn1c(COc2ccc(CC3SC(=O)NC3=O)cc2)nc2ccccc2c1=O` (stereo not shown) [Balaglitazone], the Side effect result in series [1] is “Edema”.
As for `CCc1ccc(CCOc2ccc(CC3SC(=O)NC3=O)cc2)nc1` (stereo not shown) [Pioglitazone], the Side effect entry in series [1] is reported as “Edema”.
In the case of cannabidiol [CBD], in the series with 24,000 gene probes (Illumina gene array), the gene transcripts down-regulated is 524, the gene transcripts up-regulated was 680, the “genes downregulated 2-fold or more” value was 38 and the “transcripts upregulated 2-fold or more” value is reported as 123. Besides, the “gene transcripts significantly regulated” value with 24,000 gene probes (Illumina gene array, 24,000 gene probes) is given as 1204.
As to `CC(C)(Oc1ccc(CCNC(=O)c2ccc(Cl)cc2)cc1)C(=O)O` [Bezafibrate], in series [1], the Side effect result was “Hepatotoxicity”.
As for `CN(CCOc1ccc(CC2SC(=O)NC2=O)cc1)c1ccccn1` (stereo not shown) [Rosiglitazone], in series [1], the Side effect result is “Edema”.
With `CC(C)OC(=O)C(C)(C)Oc1ccc(C(=O)c2ccc(Cl)cc2)cc1` [Fenofibrates], in series [1], the Side effect entry is “Pancreatitis”.
